In US20070280972A1, “Adhesive solid gel-forming formulations for dermal drug delivery” (ZARS, Inc., priority 2006, published 2007):
Like-named read-outs stand apart in the source and are kept apart here.

How the values were obtained:
[1] = In vitro skin flux, Franz diffusion cell, human epidermal membrane / human cadaver skin; format: in vitro ADME; settings: for duration over which steady-state delivery is shown: cumulative amount delivered across human cadaver skin from a solidified gel formulation (FIG. 1, FIG. 2)
[2] = In vitro skin flux, Franz diffusion cell, hairless mouse skin; settings: for steady state flux in solid gel-forming formulation compared with flux-enabling non-volatile solvent alone: Table 16 vs solvent tables; for Avg. Flux / Average Flux: mean and st. dev of three; for Skin Flux: excess drug, linear region 4-8 hours, mean ± SD of three
[3] = Estimated therapeutically sufficient flux (steady state flux of marketed products, in vitro)
[4] = In vitro skin flux, Franz diffusion cell, human epidermal membrane / human cadaver skin; format: in vitro ADME; settings: for Skin Flux: 0.1% (w/w) clobetasol propionate, human cadaver skin (HEM), linear region 6-28 hours, mean ± SD of three
[5] = pH 7.4
[6] = non-volatile solvent system: Glycerol, hairless mouse skin
[7] = non-volatile solvent system: Isostearic acid, 200 mcL on hairless mouse skin
[8] = non-volatile solvent system: Span 20 (sorbitan laurate), hairless mouse skin
[9] = steady state flux of marketed product through hairless mouse or human epidermal membrane, method of Example 1, estimate
[10] = non-volatile solvent system: Ethyl oleate, hairless mouse skin
[11] = non-volatile solvent system: Isopropyl myristate, hairless mouse skin
[12] = non-volatile solvent system: Propylene glycol, hairless mouse skin
[13] = solvents isopropyl myristate, ethyl oleate, propylene glycol, and Span 20, hairless mouse skin
[14] = non-volatile solvent system: Oleic acid, hairless mouse skin
[15] = non-volatile solvent system: Polyethylene glycol 400, 200 mcL on hairless mouse skin
[16] = non-volatile solvent: Polyethylene glycol 400, hairless mouse skin

Compound: CCCN1CCCC[C@H]1C(=O)Nc1c(C)cccc1C [Ropivacaine, ropivacaine]
- duration over which steady-state delivery is shown [1]: 30 h
- steady state flux in solid gel-forming formulation compared with flux-enabling non-volatile solvent alone ([2]; hairless mouse skin): higher
- Avg. Flux ([2]; high flux-enabling non-volatile solvent: ISA, hairless mouse skin): 11 ± 2 μg/cm2/h
- Avg. Flux ([2]; high flux-enabling non-volatile solvent: Span 20, hairless mouse skin): 26 ± 8 μg/cm2/h
- Skin Flux [2, 6]: 1.2 ± 0.7 μg/cm^2/h
- Skin Flux [2, 7]: 11 ± 2 μg/cm^2/h
- Skin Flux ([2]; non-volatile solvent system: Mineral oil, hairless mouse skin): 8.9 ± 0.6 μg/cm^2/h
- Skin Flux [2, 8]: 26 ± 8 μg/cm^2/h
- Skin Flux ([2]; non-volatile solvent system: Tween 20 (polyoxyethylene sorbitan monolaurate), hairless mouse skin): 2.4 ± 0.1 μg/cm^2/h
- Average Flux ([2]; non-volatile solvent: Glycerol, hairless mouse skin): 1.2 ± 0.7 μg/cm2/hr
- Average Flux ([2]; non-volatile solvent: Mineral oil, hairless mouse skin): 8.9 ± 0.6 μg/cm2/hr
- Estimated Therapeutically sufficient flux ([3]; Estimated flux based on known potency relative to lidocaine): 5 μg/cm^2/h
- Estimated Therapeutically sufficient flux ([3]; Estimated flux based on known potency relative to lidocaine, listed as ropivacaine base): about 5 μg/cm^2/h

Compound: C[C@H]1C[C@H]2[C@@H]3CCC4=CC(=O)C=C[C@]4(C)[C@@]3(F)[C@@H](O)C[C@]2(C)[C@@]1(O)C(=O)CCl [Clobetasol]
- Estimated Therapeutically sufficient flux [3, 9]: 0.05 μg/cm^2/h

Compound: O=C(O)Cc1ccccc1Nc1c(Cl)cccc1Cl [diclofenac sodium]
- Skin Flux [2, 10]: 14 ± 4 μg/cm^2/h
- Skin Flux [2, 6]: 1.7 ± 0.3 μg/cm^2/h
- Skin Flux [2, 11]: 13 ± 3 μg/cm^2/h
- Skin Flux [2, 12]: 30 ± 30 μg/cm^2/h
- Skin Flux [2, 8]: 98 ± 20 μg/cm^2/h
- steady state flux relative to flux value for glycerol [2, 13]: at least 10 times

Compound: CC(C)Cn1cnc2c(N)nc3ccccc3c21 [Imiquimod, imiquimod]
- steady state flux in solid gel-forming formulation compared with flux-enabling non-volatile solvent alone ([2]; hairless mouse skin): unchanged
- Skin Flux [2, 6]: 0 μg/cm^2/h
- Skin Flux [2, 7]: 0.30 ± 0.06 μg/cm^2/h
- Skin Flux [2, 12]: 0.05 ± 0.02 μg/cm^2/h
- Skin Flux [2, 8]: 0.30 ± 0.05 μg/cm^2/h
- Skin Flux ([2]; non-volatile solvent system: Tween 60 (polyoxyethylene sorbitan monostearate), hairless mouse skin): 0.02 ± 0.01 μg/cm^2/h

Compound: O=C(O)Cc1ccccc1Nc1c(Cl)cccc1Cl [Diclofenac]
- duration over which steady-state delivery is shown [1]: 28 h
- steady state flux in solid gel-forming formulation compared with flux-enabling non-volatile solvent alone ([1]; formulation (Example 16) tested on human epidermal membrane, solvent on hairless mouse skin): lower
- Estimated Therapeutically sufficient flux [3, 9]: 1 μg/cm^2/h

Compound: CC(C(=O)O)c1cccc(C(=O)c2ccccc2)c1 (stereo not shown) [Ketoprofen, ketoprofen]
- steady state flux in solid gel-forming formulation compared with flux-enabling non-volatile solvent alone ([2]; hairless mouse skin): lower
- Avg. Flux ([2]; high flux-enabling non-volatile solvent: Propylene glycol, hairless mouse skin): 90 ± 50 μg/cm2/h
- Skin Flux [2, 6]: 2 ± 1 μg/cm^2/h
- Skin Flux [2, 14]: 180 ± 20 μg/cm^2/h
- Skin Flux [2, 15]: 5 ± 2 μg/cm^2/h
- Skin Flux [2, 12]: 90 ± 50 μg/cm^2/h
- Skin Flux [2, 8]: 15 ± 3 μg/cm^2/h
- Average Flux [2, 16]: 5 ± 2 μg/cm2/hr
- Average Flux ([2]; non-volatile solvent: Span 20, hairless mouse skin): 15 ± 3 μg/cm2/hr
- Estimated Therapeutically sufficient flux [3, 9]: 16 μg/cm^2/h
- Estimated Therapeutically sufficient flux ([3]; steady state flux of marketed product through hairless mouse or human epidermal membrane, method of Example 1, estimate, listed as ketoprofen): about 16 μg/cm^2/h

Compound: O=C(O)Cc1ccccc1Nc1c(Cl)cccc1Cl [diclofenac acid]
- Skin Flux [2, 10]: 7 ± 3 μg/cm^2/h
- Skin Flux [2, 6]: 0 μg/cm^2/h
- Skin Flux [2, 11]: 8 ± 3 μg/cm^2/h
- Skin Flux [2, 12]: 5 ± 2 μg/cm^2/h
- Skin Flux [2, 8]: 3 ± 1 μg/cm^2/h
- steady state flux relative to currently available marketed products [2, 13]: no more than 10 times

Compound: CCC(=O)O[C@]1(C(=O)CCl)[C@@H](C)C[C@H]2[C@@H]3CCC4=CC(=O)C=C[C@]4(C)[C@@]3(F)[C@@H](O)C[C@@]21C [Clobetasol propionate, clobetasol propionate]
- Average Flux ([4]; all the neat non-volatile solutions studied, over a 30 hour time period, human cadaver skin): less than 50 ng/cm^2/hr
- Average Flux ([4]; non-volatile solvent: Isostearic acid (ISA), human epidermal membrane, mean and st. dev of three): 0.019 ± 0.003 μg/cm2/hr
- Average Flux ([4]; non-volatile solvent: Light mineral oil, human epidermal membrane, mean and st. dev of three): 0.031 ± 0.003 μg/cm2/hr
- Average Flux ([4]; non-volatile solvent: Propylene glycol, human epidermal membrane, mean and st. dev of three): 0.0038 ± 0.0004 μg/cm2/hr
- average flux relative to light mineral oil ([4]; propylene glycol and isostearic acid at a weight ratio of 9:1 vs light mineral oil): 20 times
- Skin Flux ([4]; solvent: Ethyl oleate): 19.4 ± 1.6 ng/cm^2/h
- Skin Flux ([4]; solvent: Glycerol): 7.0 ± 4.1 ng/cm^2/h
- Skin Flux ([4]; solvent: Isostearic acid (ISA)): 19.4 ± 3.2 ng/cm^2/h
- Skin Flux ([4]; solvent: Light mineral oil): 31.2 ± 3.4 ng/cm^2/h
- Skin Flux ([4]; solvent: Olive oil): 13.6 ± 3.3 ng/cm^2/h
- Avg. Flux ([4]; solvent: PG + ISA (Ratio of PG:ISA ranging from 200:1 to 1:1), value is for 9:1 mixture, human epidermal membrane): 0.8 ± 0.2 μg/cm2/h
- Skin Flux ([4]; solvent: Propylene glycol/ISA (9:1)): 764.7 ± 193.9 ng/cm^2/h
- Skin Flux ([4]; solvent: Propylene glycol, 200 mcl): 3.8 ± 0.4 ng/cm^2/h

Compound: C[C@]12CC[C@H]3[C@@H](CCC4=CC(=O)CC[C@@]43C)[C@@H]1CC[C@@H]2O [Testosterone, testosterone]
- Estimated Therapeutically sufficient flux [5]: 0.8 μg/cm^2/h

Compound: Nc1nc2c(ncn2COCCO)c(=O)[nH]1 [Acyclovir, acyclovir]
- steady state flux in solid gel-forming formulation compared with flux-enabling non-volatile solvent alone ([2]; hairless mouse skin): higher
- Avg. Flux ([2]; high flux-enabling non-volatile solvent: ISA + 30% trolamine, hairless mouse skin): 7 ± 2 μg/cm2/h
- Skin Flux ([2]; non-volatile solvent system: Ethyl oleate + 10% trolamine, hairless mouse skin): 0.2 ± 0.2 μg/cm^2/h
- Skin Flux [2, 10]: 0.2 ± 0.2 μg/cm^2/h
- Skin Flux ([2]; non-volatile solvent system: Isostearic acid + 10% trolamine, hairless mouse skin): 2.7 ± 0.6 μg/cm^2/h
- Skin Flux ([2]; non-volatile solvent system: Isostearic acid + 30% trolamine, hairless mouse skin): 7 ± 2 μg/cm^2/h
- Skin Flux [2, 7]: 0.1 ± 0.09 μg/cm^2/h
- Skin Flux ([2]; non-volatile solvent system: Oleic acid + 10% trolamine, hairless mouse skin): 3.7 ± 0.5 μg/cm^2/h
- Skin Flux ([2]; non-volatile solvent system: Oleic acid + 30% trolamine, hairless mouse skin): 14 ± 5 μg/cm^2/h
- Skin Flux [2, 14]: 0.4 ± 0.3 μg/cm^2/h
- Skin Flux [2, 15]: 0 μg/cm^2/h
- Skin Flux ([2]; non-volatile solvent system: Span 80 (sorbitan monooleate), hairless mouse skin): 0.07 ± 0.03 μg/cm^2/h
- Average Flux ([2]; non-volatile solvent: Isostearic acid + 10% trolamine, hairless mouse skin): 2.7 ± 0.6 μg/cm2/hr
- Average Flux [2, 16]: 0 μg/cm2/hr
- Estimated Therapeutically sufficient flux [3, 9]: 3 μg/cm^2/h
- Estimated Therapeutically sufficient flux ([3]; steady state flux of marketed product through hairless mouse or human epidermal membrane, method of Example 1, estimate, listed as acyclovir): about 3 μg/cm^2/h
